Measurements from US9469650B2, “Melampomagnolide B derivatives” (BOARD OF TRUSTEES OF THE UNIVERSITY OF ARKANSAS, priority 2013, dated 2016).

How the values were obtained:
[1] = system: IGROV1; test: panel of 60 human tumor cell lines, growth inhibition (Ovarian Cancer); details: IGROVI
[2] = system: MDA-MB-468; test: panel of 60 human tumor cell lines, growth inhibition (Breast Cancer); details: MDA-MB-468
[3] = system: BT-549; test: as above
[4] = system: UACC-257; test: panel of 60 human tumor cell lines, growth inhibition (Melanoma); details: UACC-257
[5] = system: NCI-H522; test: panel of 60 human tumor cell lines, growth inhibition (Non-Small Cell Lung Cancer); details: NCI-H522
[6] = system: SK-OV-3; test: panel of 60 human tumor cell lines, growth inhibition (Ovarian Cancer); details: SK-OV-3
[7] = system: OVCAR-3; test: as above; details: OVCAR-3
[8] = system: MCF7; test: panel of 60 human tumor cell lines, growth inhibition (Breast Cancer); details: MCF7
[9] = system: SK-MEL-5; test: panel of 60 human tumor cell lines, growth inhibition (Melanoma); details: 8K-MEL-5
[10] = 81-549, Log10 Concentration −4.0
[11] = 81-549, Log10 Concentration −5.0
[12] = 81-549, Log10 Concentration −6.0
[13] = 81-549, Log10 Concentration −7.0
[14] = 81-549, Log10 Concentration −8.0

C=C1C(=O)O[C@H]2[C@H]1CC/C(COC(=O)N1CCN(C)CC1)=C\CC[C@@]1(C)O[C@@H]21 [JVM 2-44]
GI50 [1]: 11.1 µM | TGI [1]: 2.99E−5 | Mean Optical Densities ([1]; Log10 Concentration −4.0): 0.249 | Percent Growth ([1]; Log10 Concentration −4.0): −65% | Mean Optical Densities ([1]; Log10 Concentration −5.0): 1.363 | Percent Growth ([1]; Log10 Concentration −5.0): 59% | Mean Optical Densities ([1]; Log10 Concentration −6.0): 1.902 | Percent Growth ([1]; Log10 Concentration −6.0): 107% | Mean Optical Densities ([1]; Log10 Concentration −7.0): 1.888 | Percent Growth ([1]; Log10 Concentration −7.0): 106% | Mean Optical Densities ([1]; Log10 Concentration −8.0): 1.866 | Percent Growth ([1]; Log10 Concentration −8.0): 104% | GI50 [2]: 1.87 µM | TGI [2]: 8.56E−6 | Mean Optical Densities ([2]; Log10 Concentration −4.0): 0.228 | Percent Growth ([2]; Log10 Concentration −4.0): −71% | Mean Optical Densities ([2]; Log10 Concentration −5.0): 0.737 | Percent Growth ([2]; Log10 Concentration −5.0): −5% | Mean Optical Densities ([2]; Log10 Concentration −6.0): 1.156 | Percent Growth ([2]; Log10 Concentration −6.0): 66% | Mean Optical Densities ([2]; Log10 Concentration −7.0): 1.377 | Percent Growth ([2]; Log10 Concentration −7.0): 104% | Mean Optical Densities ([2]; Log10 Concentration −8.0): 1.328 | Percent Growth ([2]; Log10 Concentration −8.0): 95% | TGI ([3]; 81-549): 1.81E−5 | Mean Optical Densities [3, 10]: 0.180 | Percent Growth [3, 10]: −86% | Mean Optical Densities [3, 11]: 1.522 | Percent Growth [3, 11]: 30% | Mean Optical Densities [3, 12]: 1.985 | Percent Growth [3, 12]: 84% | Mean Optical Densities [3, 13]: 1.951 | Percent Growth [3, 13]: 80% | Mean Optical Densities [3, 14]: 2.028 | Percent Growth [3, 14]: 89% | GI50 [4]: 9.93 µM | TGI [4]: 2.32E−5 | Mean Optical Densities ([4]; Log10 Concentration −4.0): 0.150 | Percent Growth ([4]; Log10 Concentration −4.0): −86% | Mean Optical Densities ([4]; Log10 Concentration −5.0): 1.662 | Percent Growth ([4]; Log10 Concentration −5.0): 50% | Mean Optical Densities ([4]; Log10 Concentration −6.0): 2.046 | Percent Growth ([4]; Log10 Concentration −6.0): 84% | Mean Optical Densities ([4]; Log10 Concentration −7.0): 2.135 | Percent Growth ([4]; Log10 Concentration −7.0): 92% | Mean Optical Densities ([4]; Log10 Concentration −8.0): 2.160 | Percent Growth ([4]; Log10 Concentration −8.0): 94% | GI50 [5]: 1.54 µM | TGI [5]: 3.55E−5 | Mean Optical Densities ([5]; Log10 Concentration −4.0): 0.194 | Percent Growth ([5]; Log10 Concentration −4.0): −78% | Mean Optical Densities ([5]; Log10 Concentration −5.0): 0.338 | Percent Growth ([5]; Log10 Concentration −5.0): −62% | Mean Optical Densities ([5]; Log10 Concentration −6.0): 1.747 | Percent Growth ([5]; Log10 Concentration −6.0): 76% | Mean Optical Densities ([5]; Log10 Concentration −7.0): 1.925 | Percent Growth ([5]; Log10 Concentration −7.0): 92% | Mean Optical Densities ([5]; Log10 Concentration −8.0): 1.900 | Percent Growth ([5]; Log10 Concentration −8.0): 89% | GI50 [6]: 31.8 µM | TGI [6]: >1.00E−4 | Mean Optical Densities ([6]; Log10 Concentration −4.0): 1.032 | Percent Growth ([6]; Log10 Concentration −4.0): 4% | Mean Optical Densities ([6]; Log10 Concentration −5.0): 1.852 | Percent Growth ([6]; Log10 Concentration −5.0): 96% | Mean Optical Densities ([6]; Log10 Concentration −6.0): 1.892 | Percent Growth ([6]; Log10 Concentration −6.0): 101% | Mean Optical Densities ([6]; Log10 Concentration −7.0): 1.808 | Percent Growth ([6]; Log10 Concentration −7.0): 91% | Mean Optical Densities ([6]; Log10 Concentration −8.0): 1.885 | Percent Growth ([6]; Log10 Concentration −8.0): 100% | GI50 [7]: 3.86 µM | TGI [7]: 1.59E−5 | Mean Optical Densities ([7]; Log10 Concentration −4.0): 0.031 | Percent Growth ([7]; Log10 Concentration −4.0): −94% | Mean Optical Densities ([7]; Log10 Concentration −5.0): 0.743 | Percent Growth ([7]; Log10 Concentration −5.0): 24% | Mean Optical Densities ([7]; Log10 Concentration −6.0): 1.396 | Percent Growth ([7]; Log10 Concentration −6.0): 87% | Mean Optical Densities ([7]; Log10 Concentration −7.0): 1.594 | Percent Growth ([7]; Log10 Concentration −7.0): 107% | Mean Optical Densities ([7]; Log10 Concentration −8.0): 1.551 | Percent Growth ([7]; Log10 Concentration −8.0): 102% | GI50 [8]: 3.14 µM | TGI [8]: 1.44E−5 | Mean Optical Densities ([8]; Log10 Concentration −4.0): 0.116 | Percent Growth ([8]; Log10 Concentration −4.0): −68% | Mean Optical Densities ([8]; Log10 Concentration −5.0): 0.561 | Percent Growth ([8]; Log10 Concentration −5.0): 13% | Mean Optical Densities ([8]; Log10 Concentration −6.0): 1.725 | Percent Growth ([8]; Log10 Concentration −6.0): 87% | Mean Optical Densities ([8]; Log10 Concentration −7.0): 1.666 | Percent Growth ([8]; Log10 Concentration −7.0): 83% | Mean Optical Densities ([8]; Log10 Concentration −8.0): 1.767 | Percent Growth ([8]; Log10 Concentration −8.0): 89% | GI50 [9]: 16.1 µM | TGI [9]: 3.06E−5 | Mean Optical Densities ([9]; Log10 Concentration −4.0): 0.067 | Percent Growth ([9]; Log10 Concentration −4.0): −91% | Mean Optical Densities ([9]; Log10 Concentration −5.0): 2.878 | Percent Growth ([9]; Log10 Concentration −5.0): 87% | Mean Optical Densities ([9]; Log10 Concentration −6.0): 3.118 | Percent Growth ([9]; Log10 Concentration −6.0): 97% | Mean Optical Densities ([9]; Log10 Concentration −7.0): 3.182 | Percent Growth ([9]; Log10 Concentration −7.0): 100% | Mean Optical Densities ([9]; Log10 Concentration −8.0): 3.116 | Percent Growth ([9]; Log10 Concentration −8.0): 97%
